In the supplement of paper PMC11451515:

Assays:
Settings in all cases: 48 h
P12-Ichikawa [1] = experiment: AUC of viability dose-response curve (% viability x log10 dose units); higher = less sensitive
Procedure, shortened: (§1)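 Medium-adapted leukemia cells in 1536-well plates, at 500 or 1000 cells/well, were incubated for 48 h at 37°C with library compounds in DMSO at 11 threefold doses from 47 μM to 0.79 nM. CellTiter-Glo One luminescence normalised per plate to DMSO and cell-free wells was fitted with a four-parameter log-logistic model over log10 doses. Area under the curve was integrated from this fit by trapezoidal rule, with curves beyond full viability scaled and failed quality-control curves removed.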

SEM cells [2] = experiment: as above
Procedure, shortened: as §1

NOMO1 [3] = experiment: as above
Procedure, shortened: as §1

SEM cells [4] = experiment: cell viability relative to DMSO control; higher = less cytotoxic
Procedure, shortened: (§2)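 NOMO1 or SEM cells were plated at 500 cells/well and P12-Ichikawa cells at 1000 cells/well in 1536-well plates (5 μl), after each leukemia line had been adapted for at least four passages in each medium. Pin dosing delivered library compounds in DMSO at 11 threefold concentrations, 47 μM to 0.79 nM. CellTiter-Glo One luminescence was read after 48 h at 37°C. Viability is reported as a per-plate percentage of DMSO wells, with cell-free wells as background.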

P12-Ichikawa [5] = experiment: as above
Procedure, shortened: as §2

NOMO1 [6] = experiment: as above
Procedure, shortened: as §2

COc1ccc2c(c1)c(CC(=O)O)c(C)n2C(=O)c1ccc(Cl)cc1
AUC of viability dose-response curve
Settings | NOMO1 [3] | P12-Ichikawa [1] | SEM cells [2]
HPLM + 10% dialyzed FBS | 461 | 440 | 459
RPMI 5 mM glucose + 10% FBS | 473 | 466 | 432
RPMI 5 mM glucose + 10% dialyzed FBS | 460 | 466 | 466

CCO[C@@H]1OC(=O)C[C@@H]1NC(=O)[C@@H]1CCCN1C(=O)[C@@H](NC(=O)c1ccc(N)c(Cl)c1)C(C)(C)C
AUC of viability dose-response curve
Settings | NOMO1 [3] | P12-Ichikawa [1] | SEM cells [2]
HPLM + 10% dialyzed FBS | 328 | 345 | 453
RPMI 5 mM glucose + 10% FBS | 305 | 356 | 477
RPMI 5 mM glucose + 10% dialyzed FBS | 318 | 374 | 446

cell viability [%], SEM cells [4]
Settings | HPLM + 10% dialyzed FBS | RPMI 5 mM glucose + 10% dialyzed FBS
0.000781 µM | 106 | 103
0.00234 µM | 121 | 126
0.00702 µM | 124 | 125
0.0211 µM | 109 | 115
0.0632 µM | 145 | 140
0.19 µM | 138 | 158
0.569 µM | 119 | 146
1.71 µM | 150 | 156
5.12 µM | 151 | 126
15.4 µM | 142 | 146
46.1 µM | 111 | 125

CC(C)(C)c1cnc(CSc2cnc(NC(=O)C3CCNCC3)s2)o1
AUC of viability dose-response curve
Settings | NOMO1 [3] | P12-Ichikawa [1] | SEM cells [2]
HPLM + 10% dialyzed FBS | 289 | 250 | 297
RPMI 5 mM glucose + 10% FBS | 321 | 321 | 309
RPMI 5 mM glucose + 10% dialyzed FBS | 312 | 330 | 311

Cc1cccc(CN2CCN(C(c3ccccc3)c3ccc(Cl)cc3)CC2)c1 (centres undefined)
AUC of viability dose-response curve
Settings | NOMO1 [3] | P12-Ichikawa [1] | SEM cells [2]
HPLM + 10% dialyzed FBS | 464 | 460 | 436
RPMI 5 mM glucose + 10% FBS | 451 | 429 | 444
RPMI 5 mM glucose + 10% dialyzed FBS | 460 | 456 | 443

SEM cells [4], RPMI 5 mM glucose + 10% dialyzed FBS
Settings | cell viability [%]
0.000781 µM | 144
0.00234 µM | 121
0.00702 µM | 122
0.0211 µM | 130
0.0632 µM | 45.3
0.19 µM | 104
0.569 µM | 135
1.71 µM | 126
5.12 µM | 82.2
15.4 µM | 121
46.1 µM | 113

CCc1nc(-c2cccc(C)c2)c(-c2ccnc(NC(=O)c3ccccc3)c2)s1
AUC of viability dose-response curve
Settings | NOMO1 [3] | P12-Ichikawa [1] | SEM cells [2]
HPLM + 10% dialyzed FBS | 461 | 449 | 463
RPMI 5 mM glucose + 10% FBS | 454 | 456 | 452
RPMI 5 mM glucose + 10% dialyzed FBS | 443 | 450 | 449

CC(=O)OCCN1C(=O)c2c(C)nc3ccc([S+](=O)([O-])N4CCOCC4)cc3c2C1=O
AUC of viability dose-response curve
Settings | HPLM + 10% dialyzed FBS | RPMI 5 mM glucose + 10% FBS | RPMI 5 mM glucose + 10% dialyzed FBS
NOMO1 [3] | 337 | 299 | 329
SEM cells [2] | 471 | 445 | 457

SEM cells [4], RPMI 5 mM glucose + 10% dialyzed FBS
Settings | cell viability [%]
0.000781 µM | 112
0.00234 µM | 114
0.00702 µM | 138
0.0211 µM | 131
0.0632 µM | 129
0.19 µM | 148
0.569 µM | 156
1.71 µM | 140
5.12 µM | 152
15.4 µM | 120
46.1 µM | 142

O=C(CCN1CCN(C(=O)OCc2cc(Cl)cc(Cl)c2)CC1)c1ccc2[nH]c(=O)oc2c1
AUC of viability dose-response curve
Settings | NOMO1 [3] | P12-Ichikawa [1] | SEM cells [2]
HPLM + 10% dialyzed FBS | 470 | 466 | 472
RPMI 5 mM glucose + 10% FBS | 431 | 454 | 465
RPMI 5 mM glucose + 10% dialyzed FBS | 448 | 459 | 469

COc1ccc(Nc2nccc(NCCO)n2)cc1
AUC of viability dose-response curve
Settings | HPLM + 10% dialyzed FBS | RPMI 5 mM glucose + 10% FBS | RPMI 5 mM glucose + 10% dialyzed FBS
P12-Ichikawa [1] | 395 | 386 | 377
SEM cells [2] | 331 | 376 | 375

cell viability [%]
Settings | NOMO1 [6] | P12-Ichikawa [5] | SEM cells [4]
HPLM + 10% dialyzed FBS, 0.000781 µM | 75.3 | 73.7 | 61.7
HPLM + 10% dialyzed FBS, 0.00234 µM | 86.5 | 83.2 | 67.9
HPLM + 10% dialyzed FBS, 0.00702 µM | 84.9 | 82.1 | 61.4
HPLM + 10% dialyzed FBS, 0.0211 µM | 97.5 | 84.8 | 75.8
HPLM + 10% dialyzed FBS, 0.0632 µM | 86 | 88.2 | 81.4
HPLM + 10% dialyzed FBS, 0.19 µM | 96.7 | 85.2 | 69.6
HPLM + 10% dialyzed FBS, 0.569 µM | 88.8 | 81.9 | 63.7
HPLM + 10% dialyzed FBS, 1.71 µM | 99.5 | 81.5 | 78.6
HPLM + 10% dialyzed FBS, 5.12 µM | 74.5 | 76.7 | 64
HPLM + 10% dialyzed FBS, 15.4 µM | 84.9 | 89.5 | 75.4
HPLM + 10% dialyzed FBS, 46.1 µM | 22.7 | 80.8 | 64.7
RPMI 5 mM glucose + 10% FBS, 0.000781 µM | 72.7 | 72 | 75.9
RPMI 5 mM glucose + 10% FBS, 0.00234 µM | 86.4 | 81.3 | 80.1
RPMI 5 mM glucose + 10% FBS, 0.00702 µM | 73.6 | 79.4 | 78
RPMI 5 mM glucose + 10% FBS, 0.0211 µM | 83.5 | 86.8 | 87.4
RPMI 5 mM glucose + 10% FBS, 0.0632 µM | 79.6 | 89.8 | 77.1
RPMI 5 mM glucose + 10% FBS, 0.19 µM | 79.8 | 81.5 | 79
RPMI 5 mM glucose + 10% FBS, 0.569 µM | 79.6 | 76.8 | 78.3
RPMI 5 mM glucose + 10% FBS, 1.71 µM | 79 | 73.6 | 85.1
RPMI 5 mM glucose + 10% FBS, 5.12 µM | 15.8 | 79 | 42.1
RPMI 5 mM glucose + 10% FBS, 15.4 µM | 81.3 | 85 | 91.5
RPMI 5 mM glucose + 10% FBS, 46.1 µM | 91.8 | 85.3 | 92.9
RPMI 5 mM glucose + 10% dialyzed FBS, 0.000781 µM | 61.9 | 69 | 64.5
RPMI 5 mM glucose + 10% dialyzed FBS, 0.00234 µM | 63.7 | 76.7 | 65.3
RPMI 5 mM glucose + 10% dialyzed FBS, 0.00702 µM | 69.4 | 78 | 73.3
RPMI 5 mM glucose + 10% dialyzed FBS, 0.0211 µM | 73.9 | 81.5 | 95
RPMI 5 mM glucose + 10% dialyzed FBS, 0.0632 µM | 73.8 | 78.9 | 91.8
RPMI 5 mM glucose + 10% dialyzed FBS, 0.19 µM | 76.9 | 81.7 | 78.6
RPMI 5 mM glucose + 10% dialyzed FBS, 0.569 µM | 68.9 | 79.9 | 81.4
RPMI 5 mM glucose + 10% dialyzed FBS, 1.71 µM | 75.5 | 81.9 | 74.7
RPMI 5 mM glucose + 10% dialyzed FBS, 5.12 µM | 23.6 | 78.4 | 74.1
RPMI 5 mM glucose + 10% dialyzed FBS, 15.4 µM | 76.9 | 79.9 | 92.5
RPMI 5 mM glucose + 10% dialyzed FBS, 46.1 µM | 76.2 | 77.9 | 68.2
